Experimental data as given in article PMC12454493, “Insight on novel sulfamoylphenyl pyrazole derivatives as anticancer carbonic anhydrase inhibitors” (Molecular Diversity, 2024).

Key:
Assay type in all cases: cell-based
T-47D = experiment: NCI-60 one-dose SRB screen (Breast Cancer); conditions: Homo sapiens, T47D, single dose 10 µM, 48 h, read-out: Growth inhibition percent (GI %)
BT-549 = experiment: NCI-60 one-dose SRB screen (Breast Cancer); conditions: Homo sapiens, single dose 10 µM, 48 h, read-out: Growth inhibition percent (GI %)
CAKI-1 = experiment: NCI-60 one-dose SRB screen (Renal Cancer); conditions: Homo sapiens, single dose 10 µM, 48 h, read-out: Growth inhibition percent (GI %)
A498 = experiment: NCI-60 one-dose SRB screen (Renal Cancer); conditions: Homo sapiens, single dose 10 µM, 48 h, read-out: Growth inhibition percent (GI %)
ACHN = experiment: NCI-60 one-dose SRB screen (Renal Cancer); conditions: Homo sapiens, single dose 10 µM, 48 h, read-out: Growth inhibition percent (GI %)
TK-10 = experiment: NCI-60 one-dose SRB screen (Renal Cancer); conditions: Homo sapiens, single dose 10 µM, 48 h, read-out: Growth inhibition percent (GI %)
UO-31 = experiment: NCI-60 one-dose SRB screen (Renal Cancer); conditions: Homo sapiens, single dose 10 µM, 48 h, read-out: Growth inhibition percent (GI %)
RXF 393 = experiment: NCI-60 one-dose SRB screen (Renal Cancer); conditions: Homo sapiens, single dose 10 µM, 48 h, read-out: Growth inhibition percent (GI %)
786-0 = experiment: NCI-60 one-dose SRB screen (Renal Cancer); conditions: Homo sapiens, single dose 10 µM, 48 h, read-out: Growth inhibition percent (GI %)
HT29 = experiment: NCI-60 one-dose SRB screen (Colon Cancer); conditions: Homo sapiens, HT-29, single dose 10 µM, 48 h, read-out: Growth inhibition percent (GI %)
SW-620 = experiment: NCI-60 one-dose SRB screen (Colon Cancer); conditions: Homo sapiens, single dose 10 µM, 48 h, read-out: Growth inhibition percent (GI %)
HCT-15 = experiment: NCI-60 one-dose SRB screen (Colon Cancer); conditions: Homo sapiens, single dose 10 µM, 48 h, read-out: Growth inhibition percent (GI %)
KM12 = experiment: NCI-60 one-dose SRB screen (Colon Cancer); conditions: Homo sapiens, single dose 10 µM, 48 h, read-out: Growth inhibition percent (GI %)
HCC-2998 = experiment: NCI-60 one-dose SRB screen (Colon Cancer); conditions: Homo sapiens, single dose 10 µM, 48 h, read-out: Growth inhibition percent (GI %)
COLO 205 = experiment: NCI-60 one-dose SRB screen (Colon Cancer); conditions: Homo sapiens, single dose 10 µM, 48 h, read-out: Growth inhibition percent (GI %)
HCT-116 = experiment: NCI-60 one-dose SRB screen (Colon Cancer); conditions: Homo sapiens, single dose 10 µM, 48 h, read-out: Growth inhibition percent (GI %)
SN12C = experiment: NCI-60 one-dose SRB screen (Renal Cancer); conditions: Homo sapiens, single dose 10 µM, 48 h, read-out: Growth inhibition percent (GI %)

| SMILES | inhibition at 10 µM (T-47D) | inhibition at 10 µM (BT-549) | inhibition at 10 µM (CAKI-1) | inhibition at 10 µM (A498) | inhibition at 10 µM (ACHN) | inhibition at 10 µM (TK-10) | inhibition at 10 µM (UO-31) | inhibition at 10 µM (RXF 393) | inhibition at 10 µM (786-0) | inhibition at 10 µM (HT29) | inhibition at 10 µM (SW-620) | inhibition at 10 µM (HCT-15) | inhibition at 10 µM (KM12) | inhibition at 10 µM (HCC-2998) | inhibition at 10 µM (COLO 205) | inhibition at 10 µM (HCT-116) | inhibition at 10 µM (SN12C) |
| --- | --- | --- | --- | --- | --- | --- | --- | --- | --- | --- | --- | --- | --- | --- | --- | --- | --- |
| NC(=S)NNC(=O)c1cn(-c2ccc(S(N)(=O)=O)cc2)nc1-c1ccccc1 [Compound 9a, 2-[3-Phenyl-1-(4-sulfamoylphenyl)-1H-pyrazole-4-carbonyl] hydrazine-1-carbothioamide] | < 5% | < 5% | < 5% | < 5% | < 5% | 12.3% | < 5% | < 5% | 9.98% | 10.8% | < 5% | < 5% | < 5% | < 5% | < 5% | < 5% | – |
| Cc1ccc(-c2nn(-c3ccc(S(N)(=O)=O)cc3)cc2C(=O)OCC(=O)Nc2nnc(S(N)(=O)=O)s2)cc1 [Compound 6b, 2-Oxo-2-[(5-sulfamoyl-1,3,4-thiadiazol-2-yl)amino] ethyl 1-(4-sulfamoylphenyl)-3-(p-tolyl)-1H-pyrazole-4-carboxylate] | < 5% | < 5% | 28% | 7.37% | < 5% | < 5% | 10.8% | < 5% | 5.95% | < 5% | < 5% | < 5% | < 5% | < 5% | < 5% | < 5% | < 5% |
| CCOC(=O)c1ccc(NC(=O)COC(=O)c2cn(-c3ccc(S(N)(=O)=O)cc3)nc2-c2ccc(OC)cc2)cc1 [Compound 5c, 2-[(4-(Ethoxycarbonyl)phenyl)amino]-2-oxoethyl 3-(4-methoxyphenyl)-1-(4-sulfamoylphenyl)-1H-pyrazole-4-carboxylate] | 46.2% | 21.5% | 55.6% | 23.2% | 21.3% | 23.8% | 38.5% | 55.3% | 53.1% | 17.3% | 7.9% | 48.5% | 26.2% | < 5% | 25.1% | 35.2% | 21.3% |
| CCOC(=O)c1ccc(NC(=O)COC(=O)c2cn(-c3ccc(S(N)(=O)=O)cc3)nc2-c2ccc(S(C)(=O)=O)cc2)cc1 [Compound 5e, 2-[(4-(Ethoxycarbonyl)phenyl)amino]-2-oxoethyl 3-(4-(methylsulfonyl)phenyl)-1-(4-sulfamoylphenyl)-1H-pyrazole-4-carboxylate] | 19.1% | 18.9% | 30.8% | 19.7% | 8.32% | < 5% | 21.9% | < 5% | 13.2% | < 5% | < 5% | < 5% | < 5% | < 5% | < 5% | < 5% | 7.85% |
| CS(=O)(=O)c1ccc(-c2nn(-c3ccc(S(N)(=O)=O)cc3)cc2C(=O)OCC(=O)Nc2ccc(S(N)(=O)=O)cc2)cc1 [Compound 4e, 2-Oxo-2-[(4-sulfamoylphenyl)amino] ethyl 3-(4-(methylsulfonyl)phenyl)-1-(4-sulfamoylphenyl)-1H-pyrazole-4-carboxylate] | < 5% | < 5% | 8.93% | < 5% | < 5% | < 5% | 8.95% | < 5% | < 5% | 6.67% | < 5% | < 5% | < 5% | < 5% | < 5% | < 5% | – |
| NS(=O)(=O)c1ccc(-n2cc(C(=O)OCC(=O)Nc3nnc(S(N)(=O)=O)s3)c(-c3ccccc3)n2)cc1 [Compound 6a, 2-Oxo-2-[(5-sulfamoyl-1,3,4-thiadiazol-2-yl)amino] ethyl 3-phenyl-1-(4-sulfamoylphenyl)-1H-pyrazole-4-carboxylate] | < 5% | < 5% | 7.52% | < 5% | 6.63% | < 5% | 12.6% | < 5% | – | < 5% | < 5% | < 5% | < 5% | < 5% | < 5% | < 5% | < 5% |
| Cc1ccc(-c2nn(-c3ccc(S(N)(=O)=O)cc3)cc2-c2n[nH]c(=S)[nH]2)cc1 [Compound 11, 4-[4-(5-Mercapto-1H-1,2,4-triazol-3-yl)-3-(p-tolyl)-1H-pyrazol-1-yl] benzenesulfonamide] | 21.2% | < 5% | 11.4% | < 5% | < 5% | < 5% | < 5% | 10.1% | – | – | < 5% | < 5% | < 5% | < 5% | < 5% | < 5% | 7.65% |
| CCOC(=O)c1ccc(NC(=O)COC(=O)c2cn(-c3ccc(S(N)(=O)=O)cc3)nc2-c2ccc(Br)cc2)cc1 [Compound 5d, 2-[(4-(Ethoxycarbonyl)phenyl)amino]-2-oxoethyl 3-(4-bromophenyl)-1-(4-sulfamoylphenyl)-1H-pyrazole-4-carboxylate] | 60.2% | 36.6% | 81.9% | 20.6% | 66% | 18.4% | 58.9% | 82.8% | 74.9% | 88.3% | 50.6% | 76.4% | 76.7% | 54.3% | 61.2% | 73.6% | 47.1% |
| Cc1ccc(-c2nn(-c3ccc(S(N)(=O)=O)cc3)cc2-c2nnc(N)s2)cc1 [Compound 10, 4-[4-(5-Amino-1,3,4-thiadiazol-2-yl)-3-(p-tolyl)-1H-pyrazol-1-yl] benzenesulfonamide] | 13.2% | 11.2% | 12.1% | 15.5% | < 5% | 15.4% | 7.96% | 9.9% | – | – | < 5% | < 5% | < 5% | < 5% | < 5% | < 5% | < 5% |
